Source: article PMC8305076, “Comprehensive Evaluation of Biological Effects of Pentathiepins on Various Human Cancer Cell Lines and Insights into Their Mode of Action” (International Journal of Molecular Sciences, 2021)
Where two headings read alike, the source gives them in different places.

Experiments:
Test in all cases: MTT cell viability assay
Type in all cases: cell-based
A-427 = conditions: Homo sapiens, 48 h
Experimental: (§1) Distinct MTT cell viability and crystal violet cell proliferation assays were performed to assess the cytotoxicity of the compounds 1–6 on 14 human cancer cell lines. In the viability assay, cells with intact mitochondria and thus active dehydrogenases are competent to convert MTT to the corresponding insoluble formazan. The formazan can be photometrically detected after solubilization and allows for indirect conclusions about the viability of the cells as an IC50 value. In the crystal violet assay, cells are stained by the binding of the dye to the chromatin, thus allowing for a quantification of biomass that remains adherent after a treatment in comparison with a control after a specific time. Potency is defined as the growth inhibitory concentration 50% (GI50).
(§2) In addition to performing the cell viability assay under normoxia (19% atmospheric oxygen), incubations were also conducted under hypoxic conditions, i.e., atmospheric oxygen levels of 1% during the treatment for 48 h. Hypoxia is a favorable condition of the tumor microenvironment that is connected with poor outcome. Therefore, the low oxygen condition mimics better the tumor environment. The biological effect of the pentathiepins under this condition provides insight into their dependency for oxygen, which has been postulated a key component in the proposed mechanism of action (Figure 3). Consistent with the proposed mechanism of action for five of the compounds, potency decreased under hypoxic conditions; in fact for 6, the half-maximal inhibitory concentration exceeded the highest tested concentration of 10 µM in four cell lines (Figure 6, Table S3). […] In contrast to the other compounds, in some cell lines, the cytotoxic effects of 1 were more pronounced under oxygen-reduced incubation conditions (Figure 6), indicating a tangential role of oxygen availability for this pentathiepin. Especially for the breast cancer cell line MCF-7, the cytotoxicity increased substantially, indicated by a decrease of the IC50 from >10.0 µM to about 1.0 µM.
(§3) The effect of the pentathiepins on the viability of the cell lines was assessed via an MTT assay, performed as previously described. Healthy and viable cells convert the yellow soluble 3-(4,5-dimethylthiazol-2-yl)-2,5-diphenyltetrazolium bromide to the insoluble purple corresponding formazan, which can be spectrophotometrically measured. For this assay, 5000 cells (1 250 for LCLC-103H) in 0.1 mL of medium were seeded per well of a 96-well plate and incubated at standard conditions for 24 h prior to treatment. A serial dilution of the test compounds was prepared in medium, covering final concentrations from 10.0 to 0.04 µM, and 0.1 mL of the working solution was added to each well in triplicate. After 48 h, 20 µL of a 2.5 mg/mL MTT in PBS solution was pipetted into each well and further incubated for 4 h at standard conditions. Thereafter, medium was replaced with 50 µL DMSO, and the plates were put on a shaker for 5 min and subsequently read at λ = 570 nm, with a SpectraMax 384plus (Molecular Devices, Sunnyvale, CA, USA). The cell viabilities of the treatment conditions were calculated in relation to a solvent control sample. The absolute IC50 was calculated via nonlinear regression followed by interpolation of the dose–response graphs in Prism 7 (GraphPad, San Diego, CA, USA). The IC90 was derived from the IC50 by using the slope factor of the dose–response graph with the tool QuickCalcs from GraphPad (GraphPad Software, San Diego, CA, USA).

A2780cis = conditions: Homo sapiens, 48 h
Experimental: as §1, §2, §3

A2780 = conditions: Homo sapiens; for IC50: 48 h; for IC90: calculated via GraphPad QuickCalcs from MTT IC50 and slope factor
Experimental: as §1, §2, §3

DanG = conditions: Homo sapiens; for IC50: 48 h; for IC90: calculated via GraphPad QuickCalcs from MTT IC50 and slope factor
Experimental: as §1, §2, §3

HAP-1.KO.GPx1 = conditions: Homo sapiens; for IC50: 48 h; for IC90: calculated via GraphPad QuickCalcs from MTT IC50 and slope factor
Experimental: as §1, §2, §3

HAP-1 = conditions: Homo sapiens; for IC50: HAP1, 48 h; for IC90: HAP1, calculated via GraphPad QuickCalcs from MTT IC50 and slope factor
Experimental: as §1, §2, §3

Kyse-70 = conditions: Homo sapiens, 48 h
Experimental: as §1, §2, §3

LCLC-103H = conditions: Homo sapiens, 48 h
Experimental: as §1, §2, §3

PATU-8902 = conditions: Homo sapiens; for IC50: 48 h; for IC90: calculated via GraphPad QuickCalcs from MTT IC50 and slope factor
Experimental: as §1, §2, §3

RT-112 = conditions: Homo sapiens, 48 h
Experimental: as §1, §2, §3

RT-4 = conditions: Homo sapiens, 48 h
Experimental: as §1, §2, §3

Siso = conditions: Homo sapiens; for IC50: 48 h; for IC90: calculated via GraphPad QuickCalcs from MTT IC50 and slope factor
Experimental: as §1, §2, §3

YAPC = conditions: Homo sapiens; for IC50: 48 h; for IC90: calculated via GraphPad QuickCalcs from MTT IC50 and slope factor
Experimental: as §1, §2, §3

[1] = hypoxic (1% O2), read-out: IC50 MTT-H mean
[2] = normoxic (19% O2), read-out: IC50 MTT-N mean

Compound | IC50 (A-427; [1]) [µM] | IC50 (A-427; [2]) [µM] | IC50 (A2780cis; [1]) [µM] | IC50 (A2780cis; [2]) [µM] | IC50 (A2780; [1]) [µM] | IC50 (A2780; [2]) [µM] | IC90 (A2780) [µM] | IC50 (DanG; [1]) [µM] | IC50 (DanG; [2]) [µM] | IC90 (DanG) [µM] | IC50 (HAP-1.KO.GPx1; [1]) [µM] | IC50 (HAP-1.KO.GPx1; [2]) [µM] | IC90 (HAP-1.KO.GPx1) [µM] | IC50 (HAP-1; [1]) [µM] | IC50 (HAP-1; [2]) [µM] | IC90 (HAP-1) [µM] | IC50 (Kyse-70; [1]) [µM] | IC50 (Kyse-70; [2]) [µM] | IC50 (LCLC-103H; [1]) [µM] | IC50 (LCLC-103H; [2]) [µM] | other results
CCOc1c2c(c3ccc(C(=O)N4CCN(C(=O)c5ccc(F)cc5)CC4)cn13)SSSSS2 [Compound 5, (6-Ethoxy-[1,2,3,4,5]pentathiepino[6,7-a]indolizin-9-yl)(4-(4-fluorobenzoyl)piperazinyl)methanone] | 0.834 | 0.906 | 0.449 | 0.308 | 0.588 | 0.259 | 0.51 | 1.62 | 1.18 | 2.05 | 0.912 | 0.413 | 0.72 | 0.661 | 0.27 | 0.49 | 1.52 | 0.826 | 0.677 | 0.8 | IC50 (PATU-8902; [1]): 1.55 µM; IC50 (PATU-8902; [2]): 1.2 µM; IC90 (PATU-8902): 2.57 µM; IC50 (RT-112; [1]): 1.12 µM; IC50 (RT-112; [2]): 1.08 µM; IC50 (RT-4; [1]): 1.74 µM; IC50 (RT-4; [2]): 0.716 µM; IC50 (Siso; [1]): 1.85 µM; IC50 (Siso; [2]): 0.794 µM; IC90 (Siso): 1.47 µM; IC50 (YAPC; [1]): 1.52 µM; IC50 (YAPC; [2]): 1.36 µM; IC90 (YAPC): 2.2 µM
CCOc1c2c(c3ccc(C(=O)N4CCCCC4)cn13)SSSSS2 [Compound 2, (6-Ethoxy-[1,2,3,4,5]pentathiepino[6,7-a]indolizin-9-yl)(piperidinyl)methanone] | 1.07 | 1.46 | 0.637 | 0.652 | 0.804 | 0.43 | 1 | 4.35 | 1.99 | 3.06 | 1.19 | 0.644 | 1.2 | 0.847 | 0.6 | 1.18 | 2.1 | 1.58 | 1.54 | 1.36 | IC50 (PATU-8902; [1]): 3.15 µM; IC50 (PATU-8902; [2]): 1.72 µM; IC90 (PATU-8902): 6.52 µM; IC50 (RT-112; [1]): 1.72 µM; IC50 (RT-112; [2]): 1.34 µM; IC50 (RT-4; [1]): 5.9 µM; IC50 (RT-4; [2]): 1.59 µM; IC50 (Siso; [1]): 2.96 µM; IC50 (Siso; [2]): 1.38 µM; IC90 (Siso): 2.7 µM; IC50 (YAPC; [1]): 2.23 µM; IC50 (YAPC; [2]): 1.55 µM; IC90 (YAPC): 4.26 µM
